“And” between values parts separate entries of the source, which are not always exact repeats. Equal entries are not always repeated.

Conditions in all cases: reference: Kochetkov et al. (2001)
Data set [1] is described as follows: Henry solubility constant Hcp at 300 K (mol/(m3 Pa)).
Data set [2] can be described thus: Henry solubility constant Hcp at 299 K (mol/(m3 Pa)).
Data set [3] in a line: Henry solubility constant Hcp at 301 K (mol/(m3 Pa)).

Turning to `C[Si](C)(C)O[Si](C)(C)O[Si](C)(C)C` [octamethyltrisiloxane], in data set [1], the “Henry solubility constant Hcp at 300 K” value is 3.3e-06 and 2.7e-06. Regarding `C[Si]1(C)O[Si](C)(C)O[Si](C)(C)O[Si](C)(C)O[Si](C)(C)O[Si](C)(C)O1` [dodecamethylcyclohexasiloxane], in data set [2], the “Henry solubility constant Hcp at 299 K” value is 6.8e-05 and 0.00015.

For the molecule `c1ccccc1` [benzene], in data set [3], the “Henry solubility constant Hcp at 301 K” value is 0.0021 and 0.0017. In the case of `C[Si](C)(C)O[Si](C)(C)C` [hexamethyldisiloxane], the “Henry solubility constant Hcp at 300 K” value in data set [1] was 0.00017 and 0.00031.

On to `C[Si](C)(C)O[Si](C)(C)O[Si](C)(C)O[Si](C)(C)C` [decamethyltetrasiloxane], for which the “Henry solubility constant Hcp at 300 K” value in data set [1] is 5.8e-07. In the case of `C[Si]1(C)O[Si](C)(C)O[Si](C)(C)O[Si](C)(C)O[Si](C)(C)O1` [decamethylcyclopentasiloxane], the “Henry solubility constant Hcp at 299 K” value in data set [2] is 3.4e-05 and 3.1e-05.
